Columns and labels:
[1] = system: full length SMN2 minigene mRNA containing SMN2 exon 7; test: SMN2 minigene mRNA splicing RT-qPCR assay in cultured cells; format: cell-based, human; conditions: for SMN2 minigene FL mRNA relative to vehicle: HEK293H cells with SMN2-A minigene, rising concentrations, 24 hr, FIG. 3; for EC (1.5-fold): Homo sapiens, HEK293-H, HEK293H cells stably transfected with SMN2-A minigene, 24 hours, 7-point concentration curve, concentration giving 1.5-fold full length SMN2 mRNA vs vehicle, read-out: EC1.5x for production of full length SMN2 mRNA
How it was run: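 Read-out is minigene FL mRNA (exon 7 included) relative to vehicle, from efficiency-corrected ΔΔCt with GAPDH normalisation. Primers and probe span exon 7, exon 8 and luciferase, so endogenous SMN is not detected. Stable SMN2-A minigene HEK293H cells, 24 h compound exposure at 37 °C, 7-point curve in duplicate.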

Smn protein = Smn protein assay in cultured cells (SMN HTRF); format: cell-based, human; conditions: for Smn protein expression: SMA Type 1 patient fibroblast cells, 48 hour, SMN HTRF assay, FIG. 8; for EC1.5x for Smn protein expression / maximum fold (Fold) increase of Smn protein: SMA patient fibroblast cells (GM03813), 48 hours; for EC1.5x for Smn protein expression: 7-point concentration curve, concentration producing 1.5 times Smn protein vs DMSO vehicle; for maximum fold (Fold) increase of Smn protein: 7-point concentration data, relative to vehicle control
How it was run: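 Smn protein measured by HTRF (anti-SMN d2/kryptate) in lysates of SMA patient fibroblasts after 48 h compound treatment, 7-point 3.16-fold dilutions, triplicates. The 665/620 nm ratio is blank-corrected to ΔF, then divided by the vehicle ΔF to give fold increase.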

Row | Structure (SMILES) | SMN2 minigene FL mRNA relative to vehicle [1] | EC (1.5-fold) [1] | Smn protein expression (Smn protein) | EC1.5x for Smn protein expression (Smn protein) | maximum fold (Fold) increase of Smn protein (Smn protein)
1 | Cc1cn2cc(-c3cc4ccc(N5CCN(C)CC5)cc4c(=O)o3)nc2c(C)n1 [Cpd 65, 3-(6,8-dimethylimidazo[1,2-a]pyrazin-2-yl)-7-(4-methylpiperazin-1-yl)-1H-isochromen-1-one] | increased SMN2 minigene FL mRNA at low concentrations | ≤ 0.1 µM | dose dependent increase in Smn protein expression | **** (an EC1.5×≦0.3 nM is indicated by four stars (****)) | ***** (a fold increase >1.65 is indicated by five stars (*****))
2 | Cc1cn2cc(-c3cc4ccc(N5CCN6CCC[C@H]6C5)cc4c(=O)o3)nc2c(C)n1 [Cpd 69, 3-(6,8-dimethylimidazo[1,2-a]pyrazin-2-yl)-7-[(8aS)-hexahydropyrrolo[1,2-a]pyrazin-2(1H)-yl]-1H-isochromen-1-one] | increased SMN2 minigene FL mRNA at low concentrations | ≤ 0.1 µM | dose dependent increase in Smn protein expression | **** (an EC1.5×≦0.3 nM is indicated by four stars (****)) | ***** (a fold increase >1.65 is indicated by five stars (*****))

Source: patent US9399649B2, “Compounds for treating spinal muscular atrophy” (PTC Therapeutics Inc., priority 2012, dated 2016)
